Assay results from PMC4382497, “Inverse Agonistic Action of 3-Iodothyronamine at the Human Trace Amine-Associated Receptor 5” (PLoS ONE, 2015).

Biological target: T1, hTAAR5 (Homo sapiens, UniProt O14804)
T1 construct: gene TAAR5; full length; N-terminal HA tag (YPYDVPDYA) and first 21 residues of bovine rhodopsin (Rho-tag) kept; vector pcDps; transient in HEK293 cells
T1 sequence (O14804 1-337): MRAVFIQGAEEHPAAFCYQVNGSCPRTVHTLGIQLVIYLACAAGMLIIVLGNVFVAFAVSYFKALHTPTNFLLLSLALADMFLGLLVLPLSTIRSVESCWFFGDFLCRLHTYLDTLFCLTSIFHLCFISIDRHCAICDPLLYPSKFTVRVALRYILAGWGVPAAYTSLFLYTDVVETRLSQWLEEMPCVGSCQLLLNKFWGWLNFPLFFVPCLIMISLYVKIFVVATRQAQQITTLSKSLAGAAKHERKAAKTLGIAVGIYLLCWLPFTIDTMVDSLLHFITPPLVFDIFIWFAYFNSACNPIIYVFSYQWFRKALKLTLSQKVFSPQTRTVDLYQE
Test: NFAT-RE luciferase reporter (IP3-luc), HEK293
Type: cell-based
Conditions: inverse agonist; reduction of basal Gq/11 (IP3) signaling; 6 h, 37 °C; 1 nM to 100 μM

NCCc1ccc(Oc2ccc(O)cc2)c(I)c1 [3-T1AM] was tested, and the EC50 was 4.4 ± 0.9 µM.
